Publication PMC10141580, “Cyclic Dichalcogenides Extend the Reach of Bioreductive Prodrugs to Harness Thiol/Disulfide Oxidoreductases: Applications to seco-Duocarmycins Targeting the Thioredoxin System” (ACS Central Science, 2023)
Where two headings read alike, the source gives them in different places.

Test system: NCI-60 standardized human tumor cell line panel
Experiment: cells
Type: cell-based
Conditions: for NCI-60 screening: Log(GI50): log10 of GI50 in M; for NCI-60 screening: Log(RedIndex): log10 reductive index vs P-CC60

## COc1cc2cc(C(=O)N3CC(CCl)c4c3cc(OC(=O)N3CCN(C)C5CSSCC53)c3ccccc43)[nH]c2c(OC)c1OC (mixture of isomers) [Me-SS66C-CBI-TMI]
786-0 (RE) cell line
  NCI-60 screening: Log(GI50): -6.71
  NCI-60 screening: Log(RedIndex): 0.94
786-0 (RE) cell line, read-out: NCI-60 screening: Raw GI50
  GI50: 200 nM
786-0, read-out: GI50
  GI50: 200 nM
A498 (RE) cell line
  NCI-60 screening: Log(GI50): -5.91
  NCI-60 screening: Log(RedIndex): 0.35
A498, read-out: GI50
  GI50: 1200 nM
A549/ATCC, read-out: GI50
  GI50: 180 nM
ACHN (RE) cell line
  NCI-60 screening: Log(GI50): -7.55
  NCI-60 screening: Log(RedIndex): 1.24
ACHN (RE) cell line, read-out: NCI-60 screening: Raw GI50
  GI50: 28 nM
ACHN, read-out: GI50
  GI50: 28 nM
BT-549, read-out: GI50
  GI50: 170 nM
CAKI-1 (RE) cell line
  NCI-60 screening: Log(GI50): -6.61
  NCI-60 screening: Log(RedIndex): 0.78
CAKI-1 (RE) cell line, read-out: NCI-60 screening: Raw GI50
  GI50: 250 nM
CAKI-1, read-out: GI50
  GI50: 250 nM
CCRF-CEM, read-out: GI50
  GI50: 110 nM
COLO 205, read-out: GI50
  GI50: 330 nM
DU-145 (PR) cell line
  NCI-60 screening: Log(GI50): -7.2
  NCI-60 screening: Log(RedIndex): 0.86
DU-145, read-out: GI50
  GI50: 63 nM
EKVX, read-out: GI50
  GI50: 230 nM
HCC-2998, read-out: GI50
  GI50: 140 nM
HCT-15, read-out: GI50
  GI50: 250 nM
HCT-116, read-out: GI50
  GI50: 190 nM
HL-60(TB), read-out: GI50
  GI50: 52 nM
HOP-62, read-out: GI50
  GI50: 200 nM
HOP-92, read-out: GI50
  GI50: 240 nM
HT29, read-out: GI50
  GI50: 230 nM
IGROV1 (OV) cell line
  NCI-60 screening: Log(GI50): -5.82
  NCI-60 screening: Log(RedIndex): 0.18
IGROV1, read-out: GI50
  GI50: 1500 nM
K-562, read-out: GI50
  GI50: 400 nM
KM12, read-out: GI50
  GI50: 1100 nM
LOX IMVI, read-out: GI50
  GI50: 170 nM
M14, read-out: GI50
  GI50: 250 nM
MALME-3M, read-out: GI50
  GI50: 210 nM
MCF7, read-out: GI50
  GI50: 28 nM
MDA-MB-435, read-out: GI50
  GI50: 840 nM
MDA-MB-468, read-out: GI50
  GI50: 160 nM
MOLT-4, read-out: GI50
  GI50: 70 nM
NCI-H23, read-out: GI50
  GI50: 45 nM
NCI-H226, read-out: GI50
  GI50: 1000 nM
NCI-H460 (LC) cell line
  NCI-60 screening: Log(GI50): -7.39
  NCI-60 screening: Log(RedIndex): 1.1
NCI-H460, read-out: GI50
  GI50: 41 nM
NCI-H522 (LC) cell line
  NCI-60 screening: Log(GI50): -6.84
  NCI-60 screening: Log(RedIndex): 1.07
NCI-H522 (LC) cell line, read-out: NCI-60 screening: Raw GI50
  GI50: 150 nM
NCI-H522, read-out: GI50
  GI50: 150 nM
OVCAR-3 (OV) cell line
  NCI-60 screening: Log(GI50): -6.31
  NCI-60 screening: Log(RedIndex): 0.63
OVCAR-3, read-out: GI50
  GI50: 490 nM
OVCAR-4 (OV) cell line
  NCI-60 screening: Log(GI50): -5.79
  NCI-60 screening: Log(RedIndex): 0.16
OVCAR-4, read-out: GI50
  GI50: 1600 nM
OVCAR-5 (OV) cell line
  NCI-60 screening: Log(GI50): -6.55
  NCI-60 screening: Log(RedIndex): 1.26
OVCAR-5, read-out: GI50
  GI50: 280 nM
OVCAR-8 (OV) cell line
  NCI-60 screening: Log(GI50): -6.82
  NCI-60 screening: Log(RedIndex): 1.04
OVCAR-8 (OV) cell line, read-out: NCI-60 screening: Raw GI50
  GI50: 150 nM
OVCAR-8, read-out: GI50
  GI50: 150 nM
PC-3 (PR) cell line
  NCI-60 screening: Log(GI50): -6.45
  NCI-60 screening: Log(RedIndex): 0.94
PC-3, read-out: GI50
  GI50: 360 nM
RPMI-8226, read-out: GI50
  GI50: 160 nM
RXF 393 (RE) cell line
  NCI-60 screening: Log(GI50): -6.88
  NCI-60 screening: Log(RedIndex): 0.9
RXF 393 (RE) cell line, read-out: NCI-60 screening: Raw GI50
  GI50: 130 nM
RXF 393, read-out: GI50
  GI50: 130 nM
SF-268, read-out: GI50
  GI50: 170 nM
SF-295, read-out: GI50
  GI50: 130 nM
SF-539, read-out: GI50
  GI50: 170 nM
SK-MEL-5, read-out: GI50
  GI50: 170 nM
SK-MEL-28, read-out: GI50
  GI50: 260 nM
SK-OV-3 (OV) cell line
  NCI-60 screening: Log(GI50): -7.47
  NCI-60 screening: Log(RedIndex): 1.8
SK-OV-3, read-out: GI50
  GI50: 34 nM
SN12C (RE) cell line
  NCI-60 screening: Log(GI50): -6.69
  NCI-60 screening: Log(RedIndex): 0.77
SN12C (RE) cell line, read-out: NCI-60 screening: Raw GI50
  GI50: 200 nM
SN12C, read-out: GI50
  GI50: 200 nM
SNB-19, read-out: GI50
  GI50: 220 nM
SR, read-out: GI50
  GI50: 37 nM
SW-620, read-out: GI50
  GI50: 260 nM
T-47D, read-out: GI50
  GI50: 290 nM
TK-10 (RE) cell line
  NCI-60 screening: Log(GI50): -5.89
  NCI-60 screening: Log(RedIndex): 0.34
TK-10, read-out: GI50
  GI50: 1300 nM
U251, read-out: GI50
  GI50: 140 nM
UACC-62, read-out: GI50
  GI50: 150 nM
